Measured values reported in patent US20230417738A1, “Mass Spectrometric Determination of Cell Toxicity” (Bruker Daltonics GmbH & Co. KG, priority 2022, published 2023).

Tested on: cells of the human continuous cell line A549
Assay type: cell-based
Conditions: 24 h
Source text: The mass spectrometer 101 used was a non-spatial-resolution MALDI-ToF. Also, the matrix 29 was not true-to-position applied. Thus, the mass spectra 20 represent sum spectra of an entire sample spot 16 and have not been generated according to the invention. In addition, the mass spectra 20 are not spatially resolved. It is intended here, among other things, to clarify the cell-specific mass spectrometric signals 40, the cell-specific mass spectrometric signatures 41, the non-cell-specific mass spectrometric signals 55 and a possible determination of reference values. In particular, the mass spectrum 20 in FIG. 11 (b) is only an approximate example here, since a small residual number of animal cells 23, which were already present before the cultivation step S2 (cell seed), can generate largely weak cell-specific mass spectrometric signals 40. […] The animal cells 23 are cells of the continuous human cell line A549. The complex culture medium DMEN with 10% fetal calf serum (FCS) was used as culture medium. […]
The animal cells 23 are also cells of the human continuous cell line A549. […] Since this example is a sum mass spectrum of the entire sample spot 16 not according to the invention, sporadic weak cell-specific mass spectrometric signals 40 may be detected in this example, which are largely absent when using a spatial resolution mass spectrometer 1. […]

CCCCCCCCCCCCCC[N+](C)(C)C.[Cl-] [tetradecyltrimethylammonium chloride]
proliferation of the animal cells in the presence of the cytotoxic factor: no proliferation of the animal cells 23 occurred
